SMILES strings stand for the structures.

Assay [1] concerns MDA-MB-468. Kind of assay: Cell cycle progression and apoptosis by flow cytometry (sub-G1). The format is cell-based, human. The note with it: 50 μM. The procedure: Before analysis, cells were washed twice with PBS to remove the fixative and re-suspended in PBS containing 50 μg/mL propidium iodide and 50 μg/mL RNaseA. After incubation at room temperature (20-35° C.) for 20 min, cells were analyzed using flow cytometry. A Becton Dickinson FACS Calibur flow cytometer (BD, USA) was used for these studies. The argon ion laser set at 488 nm was used as an excitation source. Cells with DNA content between 2n and 4n were designated as being in G1, S and G2/M phases of the cell cycle, as defined by the level of red fluorescence. […] The number of cells in each cell cycle compartment was expressed as a percentage of the total number of cells present. The results are shown in Table 3 and graphically presented in FIG. 3A (MCF-7 cell lines) and FIG. 3B (MDA-MB-231 cell lines).
Comparison of the effect of Compound A and PARP inhibitor BSI-201 (Iniparib developed by Sanofi-Aventis. BSI-201 is prepared in-house) on cell cycle progression and apoptosis was evaluated in two TNBC cell lines. The asynchronous human TNBC cell lines MDA-MB-231 and MDA-MB-468 were seeded in […] tissue culture flask at a density of 0.5×10^6 cells per flask in RPMI 1460 with 10% FCS. After 24 h, cells were treated either with 1.5 and 3.0 μM of Compound A or 50 μM of PARP inhibitor BSI-201 for 72 h. After the incubation cells were harvested (trypsinised) and processed as given in example 6.
A general note: In flow cytometry, cells or beads pass a laser one at a time.

A further assay has as its system VEGF. Kind of assay: VEGF reporter gene based assay (M-9 cells). It counts as cell-based. The following applies: Homo sapiens, hypoxia, 20-24 h, read-out: IC50 for VEGF inhibition under hypoxia. The procedure: A cell line M-9 is MDA-MB-231 which is stably co-transfected with the VEGF-Luc construct (VEGF promoter in pGL2-basic) and a plasmid containing the Geneticin (G418) resistance gene which forms VEGF promoter reporter gene. The expression of the reporter gene in the clone cells, as measured by luciferase activity, is stable.
The effect of Compound A on VEGF inhibition was evaluated using the VEGF reporter gene based assay.
Lysis Assay Buffer (1×) • Tris-Phosphate (pH 7.8)-125 mM, DTT-10 mM, EDTA-10 mM, Glycerol-50% and Triton X-100-5%.
Luciferase Assay Reagent (LAR) • Luciferase Assay Buffer-8 mL, 530 μM ATP-530 μL, 270 μM CoA-1 mL and 170 μM Luciferin-1 mL.
Luciferase Assay Buffer (LAB) (1×) • Tricin (pH 7.8)-20 mM, Magnesia Alba-1.07 mM, MgSO4-2.67 mM, EDTA-0.1 mM and DTT-33.3 mM. ATP Stock made in LAB=5.85 mg/mL CoA Stock made in LAB=2.1 mg/mL Luciferin Stock made in LAB=1.5 mg/mL
1. M-9 cells were sub-cultured and maintained in RPMI-1640 Medium with supplement of 10% FBS, and 4 μL/ml G418 (Stock 100 mg/mL) in a humidified incubator at 37° C. and 5% CO2. 2. Cells were seeded at density of 3×10^4 cells/well in 180 μL volume in tissue culture grade 96 well white plates as well as transparent plates and allowed to adhere for 16-20 h in humidified CO2 incubator (5% CO2) at 37° C. A total of two sets of plates were made, as the incubation conditions are different. 3. Compound A, Sutent® and BSI-201 were diluted in medium serially so that final desired concentrations are achieved in the respective wells. (not more than 0.5% concentration of DMSO in the wells). 4. INCUBATION CONDITIONS: One set of plates are incubated under ambient atmospheric condition with 5% CO2, referred hereafter as NORMOXIC/OXIC PLATE. […] To all the wells, 100 μL Luciferase Assay Reagent (LAR) are added, plates are immediately read for Luminescence on TOPCOUNT™ (Packard, USA). The percentage inhibitions and Inhibitory Concentration (IC50) or Effective Concentration (EC50) are calculated in comparison with Control (untreated) values. […]
For orientation: Reporter assays use an easily measured gene product as a stand-in for the process of interest.

In assay [2] the test system is MDA-MB-231. Kind of assay: Cytotoxicity assay using propidium iodide (PI). It counts as cell-based, human. The note with it: Homo sapiens, 48 h treatment, PI assay. The procedure:
(§1) The propidium iodide fluorescence assay (PI) was carried out according to the procedure mentioned in Anticancer Drugs, 1995, 6, 522-32. The assay was developed to characterize the in vitro growth of human tumor cell lines as well as to test the cytotoxic activity of the compounds. Propidium iodide (PI) was used as a dye, which penetrates only damaged cellular membranes. Intercalation complexes are formed by PI with double-stranded DNA, which effect an amplification of the fluorescence. After freezing the cells at −20° C. for 24 h, PI had access to total DNA leading to total cell population counts. Background readings were obtained from cell-free wells containing media and propidium iodide. The human breast cancer cell lines (i.e. […] Control wells were treated with vehicle (DMSO). At the end of the incubation periods, the plates were assayed using PI cytotoxicity assay protocol. Percent cytoxicity was calculated at various drug concentrations and from the graph plotted the IC50 values were determined.

For assay [3], the system named is MDA-MB-231. As to the kind of experiment: Combination in vitro cytotoxicity (PI) assay. The format is cell-based. The note with it: Homo sapiens, then CM 72 h, read-out: % inhibition of Group IA. The procedure:
The propidium iodide fluorescence assay (PI) was carried out according to the procedure mentioned in Anticancer Drugs, 1995, 6, 522-32.
The assay was developed to characterize the in vitro growth of human tumor cell lines as well as to test the cytotoxic activity of the test compounds. Propidium iodide (PI) was used as a dye, which penetrates only, damaged cellular membranes. Intercalation complexes are formed by PI with double-stranded DNA, which effect an amplification of the fluorescence. After freezing the cells at −20° C. for 24 h, PI had access to total DNA leading to total cell population counts. Background readings were obtained from cell-free wells containing media and propidium iodide.
The human triple negative breast cancer cell line, MDA-MB-231 was seeded at a density of 1500-3000 cells/well in 180 μL of RPMI-1640 medium in a 96-well plate and incubated for about 16 h in humidified 5% CO2 incubator at 37±1° C. to allow the cells to adhere. The schedule consists of six treatment groups. In every treatment group, 20 μL of 10× compound (dissolved first in DMSO and then diluted in cell medium, final DMSO concentration not exceeding 0.5%) was used in the wells and the plate was incubated in humidified 5% CO2 incubator at 37±1° C. The medium was removed from the wells and washed with PBS. 100 μL of PI working solution (7 μg/mL) per well was added and the plates were stored at −80° C. for about 16 h. The plates were thawed and the fluorescence was measured using the POLARstar optima plate reader (USA) at excitation 536 nm and emission 590 nm.
(PI stock solution of 1 mg/mL was prepared by dissolving 1 mg PI in 1 mL of distilled water. PI working solution was prepared by adding 140 μL of stock solution to PBS to make up the volume to […] (7 μg/mL)).
The synergistic effects in TNBC MDA-MB-231 cell line have been evaluated using the CompuSyn software by Chou and Talalay, described in Pharmacological Reviews, 2006, 58, 621-681. Combination index (CI) is used to evaluate if a combination is additive, synergistic or antagonistic. CI<1 is synergistic, CI=1 is additive and CI>1 is antagonistic.

In assay [4] the test system is MDA-MB-468. Kind of assay: Cytotoxicity assay using propidium iodide (PI). The note with it: Homo sapiens, 48 h treatment, PI assay. The format is cell-based, human. The procedure: as §1
The next assay deals with BT-549. As to the kind of experiment: Cytotoxicity assay using propidium iodide (PI). It counts as cell-based. The note with it: Homo sapiens, 48 h treatment. The procedure:
as §1

The term IC50 denotes the concentration that inhibits the measured activity by half. In the case of `NC(=O)c1ccc(I)c([N+](=O)[O-])c1` [BSI-201, reference compound], in the assay on MDA-MB-468 [1], the “% apoptosis at 72 h” value was 12.67%. Moreover, the IC50 in the assay with VEGF is greater than 100 µM.

What is called inhibition is the change of the read-out against control, counted positive when it falls. For `CC(=O)O[C@H]1C(=O)[C@@]2(C)[C@H]([C@H](OC(=O)c3ccccc3)[C@]3(O)C[C@H](OC(=O)[C@H](O)[C@@H](NC(=O)c4ccccc4)c4ccccc4)C(C)=C1C3(C)C)[C@]1(OC(C)=O)CO[C@@H]1C[C@@H]2O` [Paclitaxel], in the assay on MDA-MB-231 [2], 0.9 µM corresponded to half-maximal inhibition (IC50). For the same molecule, the inhibition at 0.03 µM in the assay with MDA-MB-231 [3] (paclitaxel 0.03 μM 24 h) is -2.6%. Besides, in the assay with MDA-MB-231 [3] (paclitaxel 0.1 μM 24 h), the inhibition at 0.1 µM was determined as 8.3%. Moreover, in the assay with MDA-MB-231 [3] (paclitaxel 0.3 μM 24 h), the inhibition at 0.3 µM stood at 82.9%. Also, in the assay on MDA-MB-231 [3] (paclitaxel 1.0 μM 24 h), the inhibition at 1 µM was 88.7%. Further, in the assay with MDA-MB-231 [3] (paclitaxel 3.0 μM 24 h), the inhibition at 3 µM amounted to 89.1%.

As for `CCN(CC)CCNC(=O)c1c(C)[nH]c(/C=C2\C(=O)Nc3ccc(F)cc32)c1C` [Sunitinib, reference compound], the IC50 in the assay with MDA-MB-231 [2] stood at 7.8 µM; in the assay on MDA-MB-468 [4] it was 10 µM; in the assay on BT-549 it was 18 µM; with VEGF it was 15 µM.

The values above are taken from patent US20130237582A1, “PHARMACEUTICAL COMBINATION OF PACLITAXEL AND A CDK INHIBITOR” (Piramal Enterprises Limited, priority 2010, published 2013).
